Results on 17 compounds are retold here after patent US20260159512A1, “BCAT2 INHIBITORS” (AGIOS PHARMACEUTICALS, INC., priority 2021, published 2026).

pIC50: −log10 of the molar value.

Conditions in all cases: average where tested multiple times
Experiment [1] concerns the target T1, BCAT2 (Homo sapiens, UniProt O15382).
T1 sequence (O15382 28-392): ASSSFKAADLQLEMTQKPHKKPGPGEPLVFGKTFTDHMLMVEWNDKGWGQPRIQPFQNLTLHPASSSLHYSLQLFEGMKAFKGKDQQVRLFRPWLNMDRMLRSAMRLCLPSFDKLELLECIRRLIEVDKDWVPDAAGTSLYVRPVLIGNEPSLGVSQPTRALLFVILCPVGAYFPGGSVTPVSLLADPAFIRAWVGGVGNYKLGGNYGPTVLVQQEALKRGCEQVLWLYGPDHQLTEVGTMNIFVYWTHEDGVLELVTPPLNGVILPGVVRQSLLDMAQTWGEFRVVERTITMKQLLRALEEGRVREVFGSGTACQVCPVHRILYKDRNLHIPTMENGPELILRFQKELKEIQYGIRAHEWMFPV
Put plainly: BCAT2 in vitro enzyme inhibition assay (resazurin/diaphorase-coupled fluorescence). In kind it is biochemical. The method, boiled down: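 Coupled fluorescence readout: glutamate formed from L-leucine/α-ketoglutarate transamination drives GDH/NAD/diaphorase reduction of resazurin (Ex 540/Em 590). Human BCAT2 was first exposed 1 h at room temperature to compound, top final 100 μM in 3-fold, 10-point series; substrate reaction ran 1 h before SDS quench, in technical duplicate with DMSO max and enzyme-free min controls.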
A general note: The colour change of resazurin is a common sign of viable cells or microbes.

Another experiment concerns the target T2, hBCAT1 (Homo sapiens, UniProt P54687).
T2 sequence (P54687 1-386): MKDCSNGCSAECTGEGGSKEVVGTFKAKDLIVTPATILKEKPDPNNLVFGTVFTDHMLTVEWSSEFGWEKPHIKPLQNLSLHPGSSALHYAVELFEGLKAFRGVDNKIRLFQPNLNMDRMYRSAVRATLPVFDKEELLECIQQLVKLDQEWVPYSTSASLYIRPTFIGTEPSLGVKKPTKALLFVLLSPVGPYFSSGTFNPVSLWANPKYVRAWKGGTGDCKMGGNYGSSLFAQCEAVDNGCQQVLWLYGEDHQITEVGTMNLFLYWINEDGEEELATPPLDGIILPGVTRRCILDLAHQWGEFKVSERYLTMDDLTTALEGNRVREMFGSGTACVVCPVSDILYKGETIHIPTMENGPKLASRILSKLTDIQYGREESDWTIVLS
As to the kind of experiment: BCAT1 in vitro enzyme inhibition assay (resazurin/diaphorase-coupled fluorescence). In kind it is biochemical. The method, boiled down: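 Human BCAT1 activity read by resazurin/diaphorase-coupled fluorescence. Compounds added from 50× DMSO stocks at 1:50, giving 10-point 3-fold titrations from 100 μM top final concentration. Run in technical duplicate; repeat tests averaged.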

For experiment [2], the target named is T1, BCAT2. Put plainly: BCAT2 in vitro cell inhibition using engineered A549 cells (KMV cell assay, 13C6-KMV by LC-MS/MS). In kind it is cell-based. On the set-up: The result was an engineered A549 cell line that expressed endogenous BCAT2; endogenous in cells; host or cells: A549 cells with MUT and BCAT1 knocked out by CRISPR/CAS9; key to BCAT2 Cell Inhibition: A: less than or equal to 0.100 μM; B: greater than 0.100 and less than or equal to 0.500 μM; C: greater than 0.500 and less than or equal to 1.000 μM; d: greater than 1.000 μM; E: no fit.

Take `NC1CC(NC(=O)c2ncc(Cl)s2)CC(n2c(-c3ccccc3F)nc3cnc(-c4nc[nH]n4)cc32)C1` (single isomer, unassigned) [Example 455, N-(3-amino-5-(2-(2-fluorophenyl)-6-(1H-1,2,4-triazol-3-yl)-1H-imidazo[4,5-c]pyridin-1-yl)cyclohexyl)-5-chlorothiazole-2-carboxamide]: the pIC50 – broadly, the negative decadic logarithm of the IC50, by convention in mol/L – is at least 7.00 on BCAT2 [1], over 6.30 at hBCAT1 and 6.30 to 7.00 against BCAT2 [2].

Regarding `CC(C)Cc1nc2cnc(-c3ccn(C(F)F)n3)cc2n1[C@@H]1CC(O)C[C@H](NC(=O)c2ncc(Cl)s2)C1` (stereo in doubt) [Example 213, 5-chloro-N-((1R,3S,5R)-3-(6-(1-(difluoromethyl)-1H-pyrazol-3-yl)-2-isobutyl-1H-imidazo[4,5-c]pyridin-1-yl)-5-hydroxycyclohexyl)thiazole-2-carboxamide], the pIC50 was at least 7.00 against BCAT2 [1], 6.00 to 6.30 against hBCAT1 and 6.00 to 6.30 at BCAT2 [2].

On to `CC(C)Cc1nc2cnc(-c3cccc(F)n3)cc2n1[C@H]1C[C@H](O)C[C@@H](NC(=O)c2ncc(Cl)s2)C1` (stereo in doubt) [Example 385, 5-chloro-N-((1S,3R,5R)-3-(6-(6-fluoropyridin-2-yl)-2-isobutyl-1H-imidazo[4,5-c]pyridin-1-yl)-5-hydroxycyclohexyl)thiazole-2-carboxamide], for which the negative-log IC50 (pIC50) is at least 7.00 against BCAT2 [1], over 6.30 against hBCAT1 and 6.30 to 7.00 on BCAT2 [2].

With `CC(C)Cc1nc2cnc(-c3ncccn3)cc2n1[C@@H]1C[C@@H](O)C[C@H](NC(=O)c2ncc(Cl)s2)C1` (stereo in doubt) [Example 397, 5-chloro-N-((1R,3S,5S)-3-hydroxy-5-(2-isobutyl-6-(pyrimidin-2-yl)-1H-imidazo[4,5-c]pyridin-1-yl)cyclohexyl)thiazole-2-carboxamide], the pIC50 on BCAT2 [1] was under 6.00; against hBCAT1, 5.30 to 6.00. In addition, at BCAT2 [2], the “BCAT2 Cell Inhibition” value is “E”.

Turning to `CO[C@@H]1C[C@@H](NC(=O)c2ccc(Cl)s2)C[C@@H](n2c(-c3ccccc3F)nc3cnc(-c4nc[nH]n4)cc32)C1` (stereo in doubt) [Example 412, 5-chloro-N-((1S,3R,5R)-3-(2-(2-fluorophenyl)-6-(1H-1,2,4-triazol-3-yl)-1H-imidazo[4,5-c]pyridin-1-yl)-5-methoxycyclohexyl)thiophene-2-carboxamide], the pIC50 at BCAT2 [1] is at least 7.00; against hBCAT1, over 6.30; against BCAT2 [2], at least 7.00.

Take `CO[C@@H]1C[C@@H](NC(=O)c2ncc(Cl)s2)C[C@@H](n2c(CC(C)C)nc3cnc(-c4nc[nH]n4)cc32)C1` (stereo in doubt) [Example 414, 5-chloro-N-((1S,3R,5R)-3-(2-isobutyl-6-(1H-1,2,4-triazol-3-yl)-1H-imidazo[4,5-c]pyridin-1-yl)-5-methoxycyclohexyl)thiazole-2-carboxamide]: the pIC50 at BCAT2 [1] is at least 7.00; on hBCAT1 it was over 6.30; against BCAT2 [2] it was at least 7.00.

As for `CO[C@@H]1C[C@@H](NC(=O)c2ncc(Cl)s2)C[C@@H](n2c(-c3ccccc3F)nc3cnc(-n4cncn4)cc32)C1` (stereo in doubt) [Example 416, 5-chloro-N-((1S,3R,5R)-3-(2-(2-fluorophenyl)-6-(1H-1,2,4-triazol-1-yl)-1H-imidazo[4,5-c]pyridin-1-yl)-5-methoxycyclohexyl)thiazole-2-carboxamide], the results for the pIC50 on BCAT2 [1], at hBCAT1 and against BCAT2 [2] were at least 7.00, 5.30 to 6.00 and at least 7.00, respectively.

On to `CO[C@H]1C[C@@H](NC(=O)c2ncc(Cl)s2)C[C@@H](n2c(-c3ccccc3F)nc3cnc(-c4nc[nH]n4)cc32)C1` (stereo in doubt) [Example 420, 5-chloro-N-((1S,3R,5S)-3-(2-(2-fluorophenyl)-6-(1H-1,2,4-triazol-3-yl)-1H-imidazo[4,5-c]pyridin-1-yl)-5-methoxycyclohexyl)thiazole-2-carboxamide], for which the values for the pIC50 at BCAT2 [1], at hBCAT1 and against BCAT2 [2] were at least 7.00, over 6.30 and at least 7.00, respectively.

With `CO[C@@H]1C[C@@H](NC(=O)c2ncc(Cl)s2)C[C@@H](n2c(-c3ccccc3F)nc3cnc(-n4nccn4)cc32)C1` (stereo in doubt) [Example 424, 5-chloro-N-((1S,3R,5R)-3-(2-(2-fluorophenyl)-6-(2H-1,2,3-triazol-2-yl)-1H-imidazo[4,5-c]pyridin-1-yl)-5-methoxycyclohexyl)thiazole-2-carboxamide], the pIC50 is at least 7.00 against BCAT2 [1], over 6.30 on hBCAT1 and at least 7.00 on BCAT2 [2].

As for `CO[C@@H]1C[C@@H](NC(=O)c2ncc(Cl)s2)C[C@@H](n2c(CC(C)C)nc3cnc(-c4ccccn4)cc32)C1` (stereo in doubt) [Example 426, 5-chloro-N-((1S,3R,5R)-3-(2-isobutyl-6-(pyridin-2-yl)-1H-imidazo[4,5-c]pyridin-1-yl)-5-methoxycyclohexyl)thiazole-2-carboxamide], the negative-log IC50 (pIC50) was at least 7.00 against BCAT2 [1], 6.00 to 6.30 against hBCAT1 and 6.30 to 7.00 against BCAT2 [2].

For the compound `CO[C@H]1C[C@@H](NC(=O)c2ncc(Cl)s2)C[C@@H](n2c(CC(C)C)nc3cnc(-c4nc[nH]n4)cc32)C1` (stereo in doubt) [Example 432, 5-chloro-N-((1S,3R,5S)-3-(2-isobutyl-6-(1H-1,2,4-triazol-3-yl)-1H-imidazo[4,5-c]pyridin-1-yl)-5-methoxycyclohexyl)thiazole-2-carboxamide], the pIC50 against BCAT2 [1] was at least 7.00; on hBCAT1, over 6.30; against BCAT2 [2], at least 7.00.

Regarding `O=C(NC1CCCC(n2c(-c3ccccn3)nc3cnc(-c4nnco4)cc32)C1)c1ccc(Br)s1` (stereo not drawn) [Example 1, N-(3-(6-(1,3,4-oxadiazol-2-yl)-2-(pyridin-2-yl)-1H-imidazo[4,5-c]pyridin-1-yl)cyclohexyl)-5-bromothiophene-2-carboxamide], the negative logarithm of the IC50 (pIC50) was at least 7.00 at BCAT2 [1], 5.30 to 6.00 against hBCAT1 and 6.30 to 7.00 against BCAT2 [2].

Regarding `O=C(NC1CCCC(n2c(-c3ncccc3F)nc3cnc(-c4nnco4)cc32)C1)c1ccc(Br)s1` (stereo not drawn) [Example 2, 5-bromo-N-(3-(2-(3-fluoropyridin-2-yl)-6-(1,3,4-oxadiazol-2-yl)-1H-imidazo[4,5-c]pyridin-1-yl)cyclohexyl)thiophene-2-carboxamide], the pIC50 is at least 7.00 against BCAT2 [1], 6.00 to 6.30 on hBCAT1 and 6.30 to 7.00 on BCAT2 [2].

On to `O=C(NC1CCCC(n2c(-c3ccccn3)nc3cnc(-c4cnco4)cc32)C1)c1ccc(Br)s1` (stereo not drawn) [Example 3, 5-bromo-N-(3-(6-(oxazol-5-yl)-2-(pyridin-2-yl)-1H-imidazo[4,5-c]pyridin-1-yl)cyclohexyl)thiophene-2-carboxamide], for which the pIC50 against BCAT2 [1] is at least 7.00; against hBCAT1 it was 5.30 to 6.00; at BCAT2 [2] it was 6.30 to 7.00.

In the case of `O=C(NC1CCCCC(n2c(-c3ccccn3)nc3cnc(-n4nccn4)cc32)C1)c1ncc(C(F)F)s1` (stereo not drawn) [Example 4, 5-(difluoromethyl)-N-(3-(2-(pyridin-2-yl)-6-(2H-1,2,3-triazol-2-yl)-1H-imidazo[4,5-c]pyridin-1-yl)cycloheptyl)thiazole-2-carboxamide], the figures for the pIC50 at BCAT2 [1], against hBCAT1 and against BCAT2 [2] were at least 7.00, under 5.30 and 6.00 to 6.30, respectively.

With `O=C(N[C@H]1CCC[C@@H](n2c(-c3ccccn3)nc3cnc(-c4ncco4)cc32)C1)c1ccc(Br)s1` [Example 5, 5-bromo-N-((1S,3R)-3-(6-(oxazol-2-yl)-2-(pyridin-2-yl)-1H-imidazo[4,5-c]pyridin-1-yl)cyclohexyl)thiophene-2-carboxamide], the pIC50 against BCAT2 [1] was at least 7.00; against hBCAT1 it was over 6.30; against BCAT2 [2] it was at least 7.00.

On to `O=C(N[C@H]1CCC[C@@H](n2c(-c3ncccc3F)nc3cnc(-c4ncco4)cc32)C1)c1ccc(Br)s1` [Example 6, 5-bromo-N-((1S,3R)-3-(2-(3-fluoropyridin-2-yl)-6-(oxazol-2-yl)-1H-imidazo[4,5-c]pyridin-1-yl)cyclohexyl)thiophene-2-carboxamide], for which the pIC50 against BCAT2 [1] is at least 7.00; at hBCAT1, over 6.30; at BCAT2 [2] it was at least 7.00.
